Measured values reported in ChEMBL document CHEMBL5352397, “Exploring gabosine and chlorogentisyl alcohol derivatives from a marine-derived fungus as EcGUS inhibitors with informatic assisted approaches” (Eur J Med Chem, 2022).
Active and inactive are the calls of the source. The calls are words filed in the database; no cut-off is given here.

Key:
NAMALVA = experiment: Antiproliferative activity against human NAMALVA cells assessed as cell viability at 20 uM incubated for 48 hrs by MTT assay; type: functional; settings: read-out: Activity
[1] = Antiproliferative activity against human U266B cells assessed as cell viability at 20 uM incubated for 48 hrs by MTT assay; type: functional; settings: read-out: Activity
Beta-glucuronidase [2] = biological target: T1, Beta-glucuronidase (Escherichia coli (strain K12), UniProt P05804); experiment: Inhibition of Escherichia coli beta-glucuronidase assessed as reduction of p-nitrophenol release using beta-PNPG as substrate incubated for 30 mins by Spectra max microplate reader analysis
Beta-glucuronidase [3] = biological target: T1, Beta-glucuronidase; experiment: Inhibition of Escherichia coli beta-glucuronidase assessed as inhibition constant using beta-PNPG as substrate incubated for 30 mins by Lineweaver-Burk plot analysis
[4] = biological target: Beta-glucuronidase (Escherichia coli (strain K12)) (UniProt P05804); experiment: Inhibition of Escherichia coli beta-glucuronidase assessed as reduction of p-nitrophenol release using beta-PNPG as substrate at 10 uM incubated for 30 mins by Spectra max microplate reader analysis relative to control
[5] = biological target: Beta-glucuronidase (Escherichia coli (strain K12)) (UniProt P05804); experiment: Inhibition of Escherichia coli beta-glucuronidase using beta-PNPG as substrate at 2 to 8 uM incubated for 30 mins by Lineweaver-Burk plot analysis; settings: dose 2-8 µM
[6] = biological target: Beta-glucuronidase (Escherichia coli (strain K12)) (UniProt P05804); experiment: Non-competitive inhibition of Escherichia coli beta-glucuronidase assessed as reduction of p-nitrophenol release using beta-PNPG as substrate at 10 uM incubated for 30 mins by Spectra max microplate reader analysis relative to control
Beta-glucuronidase [7] = biological target: T1, Beta-glucuronidase; experiment: Non-competitive inhibition of Escherichia coli beta-glucuronidase assessed as reduction of p-nitrophenol release using beta-PNPG as substrate incubated for 30 mins by Spectra max microplate reader analysis
Beta-glucuronidase [8] = biological target: T1, Beta-glucuronidase; experiment: Non-competitive inhibition of Escherichia coli beta-glucuronidase assessed as inhibition constant using beta-PNPG as substrate incubated for 30 mins by Lineweaver-Burk plot analysis
[9] = biological target: Beta-glucuronidase (Escherichia coli (strain K12)) (UniProt P05804); experiment: Inhibition of Escherichia coli beta-glucuronidase using beta-PNPG as substrate at 50 to 100 uM incubated for 30 mins by Lineweaver-Burk plot analysis; settings: dose 50-100 µM

T1 sequence (P05804 whole entry): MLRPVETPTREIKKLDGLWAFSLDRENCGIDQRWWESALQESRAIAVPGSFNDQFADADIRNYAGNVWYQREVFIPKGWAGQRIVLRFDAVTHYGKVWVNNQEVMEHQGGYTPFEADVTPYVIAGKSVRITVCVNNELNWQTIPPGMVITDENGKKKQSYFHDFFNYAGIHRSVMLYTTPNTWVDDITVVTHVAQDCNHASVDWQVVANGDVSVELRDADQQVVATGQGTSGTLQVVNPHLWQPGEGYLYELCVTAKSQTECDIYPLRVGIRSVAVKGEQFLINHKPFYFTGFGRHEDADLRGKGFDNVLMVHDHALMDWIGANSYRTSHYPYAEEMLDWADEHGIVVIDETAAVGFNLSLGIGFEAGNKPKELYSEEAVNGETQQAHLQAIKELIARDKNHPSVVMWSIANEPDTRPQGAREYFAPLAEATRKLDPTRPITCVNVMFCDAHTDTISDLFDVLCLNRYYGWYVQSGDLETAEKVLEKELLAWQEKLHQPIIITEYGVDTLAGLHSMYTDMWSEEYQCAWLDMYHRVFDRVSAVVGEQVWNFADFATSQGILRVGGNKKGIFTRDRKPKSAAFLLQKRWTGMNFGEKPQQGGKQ
Sequence of Beta-glucuronidase (Escherichia coli (strain K12)) (P05804 whole entry, looked up): as the sequence (P05804 whole entry) above

SMILES	viability at 20 µM (NAMALVA) [%]	viability at 20 µM [1] [%]	IC50 (Beta-glucuronidase [2]) [nM]	Ki (Beta-glucuronidase [3]) [nM]	inhibition [4] [%]	also measured
O=c1[nH]cc(F)c(=O)[nH]1 [FLUOROURACIL]	11.3	0				
O=C1C(Cl)=C[C@H](O)[C@@H](O)[C@@]12CCc1cc(O)cc(Cl)c1O2	37	79.6	2830	1160	96.5	
Oc1cc(Cl)c(O)c(COCc2cc(O)cc(Cl)c2O)c1	56.6	88.6	580	710	101	
Cc1cccc(O)c1C(=O)O[C@@H]1C(=O)C(CO)=C[C@@H](O)[C@H]1O					27.6	
C[C@H]1C[C@H](O)[C@@H](OCc2cc(O)cc(Cl)c2O)C[C@H]1O	-3.03	7.86	400	3470	91.8	inhibition [5]: Active
C[C@@H]1C[C@@H](O)[C@H](O[C@@H]2[C@@H](O)C=C(Cl)C(=O)[C@]23CCc2cc(O)cc(Cl)c2O3)C[C@@H]1O					15.3	
O=C1C(COCc2cc(O)cc(Cl)c2O)=C[C@@H](O)[C@@H](O)[C@@H]1Cl	65.1	105	1910	860	87.1	
CCC1=C[C@@H](O)[C@@H](O)[C@H](Cl)C1=O	79.2	96.3				inhibition [6]: 99.1%; IC50 (Beta-glucuronidase [7]): 1260 nM; Ki (Beta-glucuronidase [8]): 1260 nM
O=C1C(Cl)=C[C@H](O)[C@H](O)[C@@]12CCc1cc(O)cc(Cl)c1O2	-0.33	52.6	2150	4430	86.3	
O=C(O)[C@@H](O)[C@H]1OC(=O)[C@H](O)[C@H]1O [D-SACCHARIC ACID 1,4-LACTONE]			56700		11.6	inhibition [9]: Active
O=C1C(Cl)=C[C@H](O)[C@@H](O)[C@]12CCc1cc(O)cc(Cl)c1O2					49.9	
C[C@H]1C[C@H](O)[C@@H](O)C[C@H]1OCc1cc(O)cc(Cl)c1O	71.6	115	630	1640	92.8	
Cc1cc2c(c(=O)o1)C[C@@H]1C(=O)C(Cl)=C[C@H](O)[C@H]1O2					55.1	
Cc1cc(O)c(Cc2cc(O)cc(Cl)c2O)c(=O)o1					20.1	
CCCCO[C@@H]1C(=O)C(C)=C[C@@H](O)[C@H]1O	91.7	109	4610	7320	86.5	
O=C(OCc1cc(O)cc(Cl)c1O)c1cnccc1O	39.4	94.9	1950	1550	87.9	
O=Cc1cc(O)cc(Cl)c1O					69	
C[C@H]1C[C@H](OCc2cc(O)cc(Cl)c2O)[C@@H](O)C[C@H]1O	71.7	77.8	640	4270	92.1	
CC1=C[C@@H](O)[C@@H](O)[C@H](Cl)C1=O	113	105	1010	670	100	
COCc1cccc(Cl)c1O					7.73	
Cc1cc2c(c(=O)o1)C[C@H]1[C@@H](O)[C@H](O)[C@H](O)[C@H]3c4c(cc(C)oc4=O)O[C@]31O2					5.16	
CCCCOCC1=C[C@@H](O)[C@@H](O)[C@H](O)C1=O					39.3	
Cc1cc2c(c(=O)o1)C[C@H]1C(=O)[C@@H](O)[C@H](O)[C@H](O)[C@H]1O2					25.6	
O=C(O)c1cc(=O)c2ccccc2[nH]1					10.8	
O=C1C(Cc2cc(O)cc(Cl)c2O)=C[C@H](O)[C@@H](O)[C@@]12CCc1cc(O)c(Cl)c(Cl)c1O2	83.9	95	240	1090	98	inhibition [5]: Active
CO[C@@H]1[C@@H](O)C=C(Cl)C(=O)[C@]12CCc1cc(O)cc(Cl)c1O2	58.3	84.9	1420	2660	98.4	
OCc1cc(O)cc(Cl)c1O	70.4	94.1				inhibition [6]: 101%; IC50 (Beta-glucuronidase [7]): 740 nM; Ki (Beta-glucuronidase [8]): 580 nM
